Laboratory results as given in patent US6632809B2, “Gyrase inhibitors and uses thereof” (Vertex Pharmaceuticals Incorporated, priority 2000, dated 2003).

The molecules below were run against DNA gyrase (374 kDa Gyr A2B2 subunit from Staphylococcus aureus) (Staphylococcus aureus, UniProt P0A0K8) (assay: Gyrase ATPase Assay). Settings: 10 μM concentration; ATPase assay at 30° C., 0.9 mM ATP; average of duplicate values.
Sequence of DNA gyrase (374 kDa Gyr A2B2 subunit from Staphylococcus aureus) (P0A0K8 whole entry): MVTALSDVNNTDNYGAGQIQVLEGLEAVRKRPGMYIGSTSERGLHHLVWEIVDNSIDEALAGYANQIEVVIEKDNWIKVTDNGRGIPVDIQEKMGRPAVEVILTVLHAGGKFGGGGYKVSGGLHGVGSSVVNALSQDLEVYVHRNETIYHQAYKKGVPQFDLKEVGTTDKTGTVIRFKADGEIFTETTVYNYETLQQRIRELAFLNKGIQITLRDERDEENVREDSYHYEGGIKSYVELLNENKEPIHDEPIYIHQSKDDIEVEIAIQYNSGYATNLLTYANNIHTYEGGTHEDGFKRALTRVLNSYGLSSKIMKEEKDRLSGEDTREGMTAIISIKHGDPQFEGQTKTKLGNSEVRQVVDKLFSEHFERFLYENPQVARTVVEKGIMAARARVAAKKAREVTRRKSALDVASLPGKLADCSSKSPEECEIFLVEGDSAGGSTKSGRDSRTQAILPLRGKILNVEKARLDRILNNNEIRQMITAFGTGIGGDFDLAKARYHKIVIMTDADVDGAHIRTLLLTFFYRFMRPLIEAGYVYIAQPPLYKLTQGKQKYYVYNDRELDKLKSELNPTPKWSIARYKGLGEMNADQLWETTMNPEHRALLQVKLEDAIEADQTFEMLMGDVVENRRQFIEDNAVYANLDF
Sequence of DNA gyrase (374 kDa Gyr A2B2 subunit from Staphylococcus aureus) (P20831 whole entry, further chain): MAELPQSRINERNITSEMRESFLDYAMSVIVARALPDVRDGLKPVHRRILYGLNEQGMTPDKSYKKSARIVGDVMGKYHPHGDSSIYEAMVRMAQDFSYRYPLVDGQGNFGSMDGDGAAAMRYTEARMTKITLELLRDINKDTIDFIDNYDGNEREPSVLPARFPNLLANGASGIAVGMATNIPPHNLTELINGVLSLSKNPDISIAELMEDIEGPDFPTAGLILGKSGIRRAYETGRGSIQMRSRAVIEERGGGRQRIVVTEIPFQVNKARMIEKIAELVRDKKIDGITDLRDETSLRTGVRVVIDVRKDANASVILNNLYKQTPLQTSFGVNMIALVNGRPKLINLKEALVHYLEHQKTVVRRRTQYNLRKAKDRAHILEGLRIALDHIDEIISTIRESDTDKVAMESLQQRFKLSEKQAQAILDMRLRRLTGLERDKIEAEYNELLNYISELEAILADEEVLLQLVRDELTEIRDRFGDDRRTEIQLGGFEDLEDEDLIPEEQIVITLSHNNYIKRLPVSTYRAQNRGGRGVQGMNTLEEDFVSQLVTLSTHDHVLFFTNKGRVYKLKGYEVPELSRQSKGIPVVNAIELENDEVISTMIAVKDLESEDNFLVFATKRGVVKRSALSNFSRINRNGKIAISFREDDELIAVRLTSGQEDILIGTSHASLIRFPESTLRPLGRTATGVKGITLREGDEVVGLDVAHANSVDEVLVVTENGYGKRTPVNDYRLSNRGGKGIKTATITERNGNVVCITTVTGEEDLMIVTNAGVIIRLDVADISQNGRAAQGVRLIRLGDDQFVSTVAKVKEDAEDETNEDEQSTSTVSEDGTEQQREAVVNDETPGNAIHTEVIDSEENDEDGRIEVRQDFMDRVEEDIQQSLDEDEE
Format: biochemical
Method: The ATP hydrolysis activity of DNA gyrase was measure by coupling the production of ADP through pyruvate kinase/lactate dehydrogenase to the oxidation of NADH. This method has been described previously (Tamura and Gellert, 1990, J. Biol. Chem., 265, 21342).
ATPase assays are carried out at 30° C. in buffered solutions containing 100 mM TRIS pH 7.6, 1.5 mM MgCl2, 50 mM KCl. The coupling system contains (final concentrations) 2.5 mM phosphoenol pyruvate, 200 μM nicotinamide adenine dinucleotide (NADH), 1 mM DTT, […], and 10 ug/ml lactate dehydrogenase. 40 nanomolar enzyme (374 kDa Gyr A2B2 subunit from Staphylococcus aureus) and a DMSO solution of the inhibitor to a final concentration of 4% are added and the reaction mixture is allowed to incubate for 10 minutes at 30° C. The reaction is then started by the addition of ATP to a final concentration of 0.9 mM and the rate of NADH disappearance at 340 nanometers is measured over the course of 10 minutes. The percent inhibition values are determined from rate versus concentration profiles and are reported as the average of duplicate values.
The compound numbers correspond to the compound numbers in Table 1. Compounds having an activity designated as “A” provided a percent inhibition value below 50 percent; compounds having an activity designated as “B” provided a percent inhibition value between 50 and 75 percent; and compounds having an activity designated as “C” provided a percent inhibition value greater than 75 percent.
With `CCNC(=S)Nc1nc2cc(-c3ccccc3)ccc2[nH]1` [Ia-36] the “Gyrase Inhibitory Activity (percent inhibition)” value was “A (provided a percent inhibition value below 50 percent)”.

Same assay, conditions: 10 μM concentration; ATPase assay at 30° C., 0.9 mM ATP; average of duplicate values; read-out: Gyrase Inhibitory Activity (percent inhibition)
`CCOC(=O)Nc1nc2cc(-c3ccccc3)ccc2[nH]1` [Ia-1] was tested, and the inhibition at 10 µM was 50 to 75%. Work on `CCOC(=O)Nc1nc2cc(-c3cccs3)ccc2[nH]1` [Ia-2] yielded an inhibition at 10 µM of 50 to 75%. `CCOC(=O)Nc1nc2cc(-c3ccccn3)ccc2[nH]1` [Ia-3] was tested, and the inhibition at 10 µM was 50 to 75%. With `CCOC(=O)Nc1nc2cc(-c3ccncc3)ccc2[nH]1` [Ia-4] the inhibition at 10 µM was over 75%. In the case of `Nc1nc2cc(-c3ccccc3)ccc2[nH]1` [Ia-6], the inhibition at 10 µM is reported as under 50%. Work on `COC(=O)Nc1nc2cc(-c3ccccc3)ccc2[nH]1` [Ia-7] yielded an inhibition at 10 µM of under 50%. `C#CCOC(=O)Nc1nc2cc(-c3ccccc3)ccc2[nH]1` [Ia-8] was tested, and the inhibition at 10 µM was under 50%. Work on `CCOC(=O)Nc1nc2cc(-c3ccccc3C(F)(F)F)ccc2[nH]1` [Ia-9] yielded an inhibition at 10 µM of under 50%. `CCOC(=O)Nc1nc2cc(-c3ccccc3)ccc2n1C` [Ia-10] showed an inhibition at 10 µM of under 50%. In the case of `CCOC(=O)Nc1nc2cc(-c3cccnc3)ccc2[nH]1` [Ia-11, (5-Pyridin-3-yl-1H-benzoimidazol-2-yl)-carbamic acid ethyl ester], the inhibition at 10 µM is reported as over 75%. `CCOC(=O)Nc1nc2cc(-c3ccc(N(C)C)cc3)ccc2[nH]1` [Ia-12] showed an inhibition at 10 µM of 50 to 75%. Molecule `CCCc1cc(-c2ccccc2)cc2nc(NC(=O)OCC)[nH]c12` [Ia-13] has an inhibition at 10 µM of under 50%. `CCOC(=O)Nc1nc2cc(-c3cc(F)c(F)cc3F)ccc2[nH]1` [Ia-14] gave an inhibition at 10 µM of 50 to 75%. For `CCOC(=O)Nc1nc2cc(-c3cccc(OCC)c3)ccc2[nH]1` [Ia-15], the inhibition at 10 µM was 50 to 75%. Work on `CCOC(=O)Nc1nc2cc(-c3cnc(OC)nc3OC)ccc2[nH]1` [Ia-16] yielded an inhibition at 10 µM of over 75%. `CCOC(=O)Nc1nc2cc(-c3cccnc3)cc(Br)c2[nH]1` [Ia-17] was tested, and the inhibition at 10 µM was over 75%. `CCOC(=O)Nc1nc2cc(-c3ccc(OC)nc3)ccc2[nH]1` [Ia-18] showed an inhibition at 10 µM of over 75%. `CCOC(=O)Nc1nc2cc(-c3ccccc3)cc(Br)c2[nH]1` [Ia-19] was tested, and the inhibition at 10 µM was over 75%. Molecule `O=C(Nc1nc2cc(-c3ccccc3)cc(Br)c2[nH]1)N1CCCCC1` [Ia-20] has an inhibition at 10 µM of under 50%. `CCOC(=O)Nc1nc2cc(-c3cncnc3)ccc2[nH]1` [Ia-21] gave an inhibition at 10 µM of over 75%. Molecule `CCOC(=O)Nc1nc2cc(-c3cnc(OC)nc3)ccc2[nH]1` [Ia-22] has an inhibition at 10 µM of over 75%. `CCOC(=O)Nc1nc2cc(-c3ccc(OC)cc3)ccc2[nH]1` [Ia-23] was tested, and the inhibition at 10 µM was over 75%. Work on `CCOC(=O)Nc1nc2cc(-c3cccc(C(=O)O)c3)ccc2[nH]1` [Ia-24] yielded an inhibition at 10 µM of over 75%. `CCOC(=O)Nc1nc2cc(-c3ccc(OC)c(OC)c3)ccc2[nH]1` [Ia-26] showed an inhibition at 10 µM of 50 to 75%. In the case of `CCNC(=O)Nc1nc2cc(C(=O)O)ccc2[nH]1` [Ia-33], the inhibition at 10 µM is reported as under 50%. Work on `CCNC(=S)Nc1nc2cc(-c3cccnc3)ccc2[nH]1` [Ia-34] yielded an inhibition at 10 µM of over 75%. `CCNC(=O)Nc1nc2cc(-c3cnc(NCC(=O)O)nc3)ccc2[nH]1` [Ia-35] was tested, and the inhibition at 10 µM was over 75%. `CCNC(=S)Nc1nc2cc(-c3cnc(NCC(=O)OC(C)(C)C)nc3)ccc2[nH]1` [Ia-37] was tested, and the inhibition at 10 µM was over 75%. In the case of `O=C(Nc1nc2cc(-c3cccnc3)ccc2[nH]1)NC1CC1` [Ia-38], the inhibition at 10 µM is reported as 50 to 75%. For `CCNC(=S)Nc1nc2cc(-c3cnc(NCC(=O)O)nc3)ccc2[nH]1` [Ia-39], the inhibition at 10 µM was over 75%. `CCNC(=O)Nc1nc2cc(-c3cnc(NC(COC(C)(C)C)C(=O)OC(C)(C)C)nc3)ccc2[nH]1` (stereo not shown) [Ia-40] showed an inhibition at 10 µM of over 75%. `CC(C)(C)OCC(Nc1ncc(-c2ccc3[nH]c(NC#N)nc3c2)cn1)C(=O)OC(C)(C)C` (stereo not shown) [Ia-41] was tested, and the inhibition at 10 µM was under 50%. `CCNC(=O)Nc1nc2cc(-c3ccccc3)cc(C)c2[nH]1` [Ia-43] was tested, and the inhibition at 10 µM was over 75%. For `CCNC(=O)Nc1nc2cc(-c3cnc(NC4CC4)nc3)ccc2[nH]1` [Ia-44], the inhibition at 10 µM was over 75%. Work on `CCNC(=O)Nc1nc2cc(-c3cnc(NC(CO)C(=O)O)nc3)ccc2[nH]1` (stereo not shown) [Ia-45] yielded an inhibition at 10 µM of over 75%. `CCNC(=O)Nc1nc2cc(C(=O)NOC(C)(C)C)ccc2[nH]1` [Ia-46] gave an inhibition at 10 µM of under 50%. `CCNC(=O)Nc1nc2cc(-c3cnc(NCC4CCCO4)nc3)ccc2[nH]1` (stereo not shown) [Ia-47] showed an inhibition at 10 µM of over 75%. With `CCNC(=O)Nc1nc2cc(-c3cnc(NCc4ccccn4)nc3)ccc2[nH]1` [Ia-48] the inhibition at 10 µM was over 75%. In the case of `CCNC(=O)Nc1nc2cc(-c3cnc(NCc4ccc(OC)cc4)nc3)ccc2[nH]1` [Ia-49], the inhibition at 10 µM is reported as over 75%. With `CCNC(=O)Nc1nc2cc(-c3ccccc3)cc(OC)c2[nH]1` [Ia-50] the inhibition at 10 µM was 50 to 75%. `CCNC(=O)Nc1nc2cc(-c3cnc(OC)nc3OC)ccc2[nH]1` [Ia-52] showed an inhibition at 10 µM of over 75%. In the case of `CCNC(=O)Nc1nc2cc(-c3cnc(N4CCOCC4)nc3)ccc2[nH]1` [Ia-53], the inhibition at 10 µM is reported as over 75%. `CCNC(=O)Nc1nc2cc(-c3cnc(N)nc3)ccc2[nH]1` [Ia-54] was tested, and the inhibition at 10 µM was over 75%. `CCNC(=O)Nc1nc2cc(-c3cnc(NCCN4CCCC4)nc3)ccc2[nH]1` [Ia-55] showed an inhibition at 10 µM of over 75%. `CCNC(=O)Nc1nc2cc(-c3cnc(NCc4cccc(F)c4)nc3)ccc2[nH]1` [Ia-56] showed an inhibition at 10 µM of over 75%. For `CCNC(=O)Nc1nc2cc(-c3cnc(NC4CCCC4)nc3)ccc2[nH]1` [Ia-57], the inhibition at 10 µM was over 75%. `CCNC(=O)Nc1nc2cc(-c3cncc(C(=O)OCC)c3)ccc2[nH]1` [Ia-59] gave an inhibition at 10 µM of over 75%. `CCNC(=O)Nc1nc2cc(-c3cncc(C(=O)O)c3)ccc2[nH]1` [Ia-60] gave an inhibition at 10 µM of over 75%. `CCNC(=O)Nc1nc2cc(-c3cnc(NCc4ccc(F)c(Cl)c4)nc3)ccc2[nH]1` [Ia-61] gave an inhibition at 10 µM of over 75%. Work on `CCNC(=O)Nc1nc2cc(-c3cccnc3)c(F)cc2[nH]1` [Ia-62] yielded an inhibition at 10 µM of over 75%. `CCNC(=O)Nc1nc2cc(-c3cnc(NCCc4ccccn4)nc3)ccc2[nH]1` [Ia-63] gave an inhibition at 10 µM of over 75%. For `CCNC(=O)Nc1nc2cc(-c3cnc(N4CCN(C)CC4)nc3)ccc2[nH]1` [Ia-64], the inhibition at 10 µM was over 75%. Molecule `CCNC(=O)Nc1nc2cc(-c3cnc(N4CCCC4)nc3)ccc2[nH]1` [Ia-65] has an inhibition at 10 µM of over 75%. Molecule `CCNC(=O)Nc1nc2cc(-c3cnc(NCC)nc3)ccc2[nH]1` [Ia-66] has an inhibition at 10 µM of over 75%. `CCOC(=O)Nc1nc2cc(-c3ccc4[nH]c(NC(=O)OCC)nc4c3)ccc2[nH]1` [Ia-67] showed an inhibition at 10 µM of over 75%. With `CCOC(=O)Nc1nc2cc(-c3cnc(N4CCN(C(=O)OC(C)(C)C)CC4)nc3)ccc2[nH]1` [Ia-69] the inhibition at 10 µM was 50 to 75%. With `CCOC(=O)Nc1nc2cc(-c3cnc(N4CCNCC4)nc3)ccc2[nH]1` [Ia-70] the inhibition at 10 µM was over 75%. Molecule `CCOC(=O)Nc1nc2cc(-c3ccc(=O)[nH]c3)ccc2[nH]1` [Ia-71] has an inhibition at 10 µM of under 50%. `CCOC(=O)Nc1nc2cc(-c3cnc(N)nc3)ccc2[nH]1` [Ia-72] gave an inhibition at 10 µM of over 75%. Molecule `CCCCNc1nc2cc(-c3cccnc3)ccc2[nH]1` [Ia-73] has an inhibition at 10 µM of under 50%. `CCCNc1nc2cc(-c3cccnc3)ccc2[nH]1` [Ia-74] showed an inhibition at 10 µM of under 50%. Work on `COC(=O)CCNc1nc2cc(-c3cccnc3)ccc2[nH]1` [Ia-75] yielded an inhibition at 10 µM of under 50%. For `COC(=O)Nc1nc2cc(-c3cnc(NCC(=O)OC(C)(C)C)nc3)ccc2[nH]1` [Ia-76], the inhibition at 10 µM was over 75%. With `CCOC(=O)Nc1ncc(-c2ccc3[nH]c(NC(=O)OCC)nc3c2)cn1` [Ia-77] the inhibition at 10 µM was over 75%. Molecule `CN(C)CCn1c(N)nc2cc(-c3cccnc3)ccc21` [Ia-78] has an inhibition at 10 µM of under 50%. With `CNc1nc2cc(-c3cccnc3)ccc2n1CCN(C)C` [Ia-79] the inhibition at 10 µM was under 50%. `CCOC(=O)Nc1nc2cc(-c3cnc(NCC(=O)O)nc3)ccc2[nH]1` [Ia-80] was tested, and the inhibition at 10 µM was over 75%. Molecule `CCOC(=O)Nc1nc2cc(-c3cccc(C(=O)OC)c3)ccc2[nH]1` [Ia-81] has an inhibition at 10 µM of 50 to 75%. Work on `CCCC(=O)Nc1nc2cc(-c3ccccc3)ccc2[nH]1` [Ia-82] yielded an inhibition at 10 µM of under 50%. `CCNC(=O)Nc1nc2cc(-c3ccccc3)ccc2[nH]1` [Ia-84, 1-Ethyl-3-(5-phenyl-1H-benzoimidazol-2-yl)-urea] gave an inhibition at 10 µM of over 75%. `CN1CCCC1C(=O)Nc1nc2cc(-c3ccccc3)ccc2[nH]1` (stereo not shown) [Ia-85] was tested, and the inhibition at 10 µM was under 50%. Molecule `CCOC(=O)Nc1nc2cc(-c3cnc(NCCNC(=O)OC(C)(C)C)nc3)ccc2[nH]1` [Ia-86] has an inhibition at 10 µM of over 75%. In the case of `CCOC(=O)Nc1cncc(-c2ccc3[nH]c(NC(=O)OCC)nc3c2)c1` [Ia-87], the inhibition at 10 µM is reported as over 75%. Molecule `CCOC(=O)Nc1nc2cc(-c3cnc(NCCN)nc3)ccc2[nH]1` [Ia-88] has an inhibition at 10 µM of over 75%. `CCNC(=O)Nc1nc2cc(-c3ccccc3)cc(Br)c2[nH]1` [Ia-89] gave an inhibition at 10 µM of over 75%. `CCOC(=O)Nc1nc2cc(-c3cnc(N4CCN(S(C)(=O)=O)CC4)nc3)ccc2[nH]1` [Ia-91] gave an inhibition at 10 µM of under 50%. `CCOC(=O)Nc1nc2cc(-c3cnc(NC(COC(C)(C)C)C(=O)OC(C)(C)C)nc3)ccc2[nH]1` (stereo not shown) [Ia-93] was tested, and the inhibition at 10 µM was over 75%. Molecule `CCOC(=O)Nc1nc2cc(-c3cnc(NC(CO)C(=O)O)nc3)ccc2[nH]1` (stereo not shown) [Ia-94] has an inhibition at 10 µM of over 75%. `CCN/C(=N\C)Nc1nc2cc(-c3ccccc3)ccc2[nH]1` [Ia-97] was tested, and the inhibition at 10 µM was under 50%. `CCNC(=O)Nc1nc2cc(-c3cnc(NC(C)COC)nc3)ccc2[nH]1` (stereo not shown) [Ia-100] showed an inhibition at 10 µM of over 75%. Work on `CCNC(=N)Nc1nc2cc(-c3ccccc3)ccc2[nH]1` [Ia-101] yielded an inhibition at 10 µM of under 50%.
